Source: US20240350494A1, “THERAPEUTIC MODULATION OF INTEGRINS” (Pliant Therapeutics, Inc., priority 2021, published 2024)

Legend:
[1] = tested on: IPF-derived human lung fibroblasts; experiment: LAP adhesion assay, IPF-derived human lung fibroblasts (express αVβ1); type: cell-based; details: LAP-coated plates, cell index, xCELLigence; FIG. 1B
Protocol: Two latency associated peptide (LAP) adhesion binding assays were devised using primary human lung cells, including normal (healthy) human bronchial epithelial cells and human lung fibroblasts (healthy and IPF).
Human lung fibroblasts derived from normal and IPF lung tissue are known to express αVβ1 integrin. The IPF-derived human lung fibroblasts were prepared for the assay by dissociation with trypsin/EDTA, and were seeded at 20,000 cells per well on 96 well plates (ACEA Bioscience E-plate View, Acea Biosciences; San Diego, CA) previously coated with 5 µg/ml of recombinant human LAP (R&D Systems; Minneapolis, MN) and blocked with 4% bovine serum albumin. Cell index (electrical impedance) was measured to assess cell attachment/spreading every 3 minutes for 24 hours at 37° C./5% CO2 using the xCELLigence RTCA MP Instrument (Acea Biosciences; San Diego, CA). […] In the assay, the IPF-derived human lung fibroblasts were separately incubated with: the αVβ1-selective small molecule inhibitor; the selective antibody αVβ6 inhibitor, 3G9; and compound 5.

[2] = tested on: SMAD3 phosphorylation; experiment: pSMAD3/SMAD3 in lung tissue and BALF of healthy mice; type: in vivo; details: 4 days of treatment, dose dependent
Excerpt: It has been previously shown that inhibition of αVβ6 in the lung can be detected though measurement of phospho-SMAD (pSMAD) in alveolar macrophages. Alveolar macrophages are known to operate in a unique niche in the lung, distinct from interstitial macrophages. SMAD3 is a downstream target of the active TGF-β cytokine binding its receptor and in alveolar macrophages it is phosphorylated by homoeostatic levels of TGF-β. Accordingly, it was desirable to know whether inhibition of TGF-β activation using the disclosed compounds would result in reduced SMAD2 and SMAD3 phosphorylation.
FIG. 2A is a graph of PSMAD3/SMAD3 in lung tissue from healthy mice administered PBS vehicle and varying levels of compound 5 for 4 days. FIG. 2B is a graph of PSMAD3/SMAD3 in BALF drawn from the same healthy mice administered PBS vehicle and varying levels of compound 5 for 4 days.

[3] = tested on: lung collagen; experiment: Murine bleomycin model, collagen deposition; type: in vivo, mice (C57BL/6); details: bleomycin mice
Protocol: Mice (C57BL/6) were divided into healthy (n=15), vehicle-treated (n=15), and test article-treated (n=15 per dose) groups. Mice in the vehicle and test article-treated groups were administered 3 U/kg of bleomycin (Teva Pharmaceuticals; North Wales, PA) via oropharyngeal aspiration while under anesthesia on day 0. Healthy animals were administered water in a similar fashion. Starting on day 7, mice in the control group were administered PBS vehicle, 130 μL, by oral gavage, BID for 14 days. Also starting on day 7, mice in the test group were administered compound 5 in PBS by oral gavage, BID for 14 days, at relative dosages of 1×, 2.5× and 5×. […] From day 14 through day 21, 9 of the 15 mice were administered ^2H2O for labeling. All mice were sacrificed on day 21 and tissues were collected. Samples were prepared for analysis either directly from lung tissue, or by bronchoalveolar lavage, which washes out the bronchiolar and alveolar space with saline to produce a bronchoalveolar lavage fluid (BALF) in which 80-90% of cells are alveolar macrophages.
FIGS. 2F, 2G, and 2H show high resolution second harmonic generation images of fibrillar collagen (collagen type I and III) taken from formalin-fixed paraffin embedded lung tissue sections from a healthy mouse lung (2F), a vehicle-treated mouse lung (2G) and a test-article treated mouse lung (2H; 500 mg/kg BID). Color scale is indicative of collagen fiber density (red=most dense; blue=least dense).
FIG. 2I is a graph showing the percent total collagen area in the second harmonic generation mouse lung images. Large structural areas of collagen found similarly in healthy and fibrotic tissues (dense collagen fibers surrounding airways were excluded from this analysis to focus on interstitial fibrotic collagen). […] The 1×, 2.5×, and 5× dosages were at the same absolute values in mg/kg as in Example B2.

[4] = molecular target: T1, αVβ6 (Homo sapiens, UniProt P06756+P18564); experiment: αVβ6 target engagement in IPF lungs, [18F]FP-R01-MG-F2 PET/CT; type: in vivo; parameters: key to Vt: VT = volume of labeled tissue, from two-compartment kinetic model; key to Vs (corrected for non-displaceable binding, VND = 0.66): VT corrected for non-displaceable tracer binding (VND)
T1 construct: evaluating αVβ6 receptor occupancy in the lungs; from tissue; host or cells: lungs of living participants with IPF (in vivo PET/CT)
T1 sequence (P06756 31-889 limits assumed): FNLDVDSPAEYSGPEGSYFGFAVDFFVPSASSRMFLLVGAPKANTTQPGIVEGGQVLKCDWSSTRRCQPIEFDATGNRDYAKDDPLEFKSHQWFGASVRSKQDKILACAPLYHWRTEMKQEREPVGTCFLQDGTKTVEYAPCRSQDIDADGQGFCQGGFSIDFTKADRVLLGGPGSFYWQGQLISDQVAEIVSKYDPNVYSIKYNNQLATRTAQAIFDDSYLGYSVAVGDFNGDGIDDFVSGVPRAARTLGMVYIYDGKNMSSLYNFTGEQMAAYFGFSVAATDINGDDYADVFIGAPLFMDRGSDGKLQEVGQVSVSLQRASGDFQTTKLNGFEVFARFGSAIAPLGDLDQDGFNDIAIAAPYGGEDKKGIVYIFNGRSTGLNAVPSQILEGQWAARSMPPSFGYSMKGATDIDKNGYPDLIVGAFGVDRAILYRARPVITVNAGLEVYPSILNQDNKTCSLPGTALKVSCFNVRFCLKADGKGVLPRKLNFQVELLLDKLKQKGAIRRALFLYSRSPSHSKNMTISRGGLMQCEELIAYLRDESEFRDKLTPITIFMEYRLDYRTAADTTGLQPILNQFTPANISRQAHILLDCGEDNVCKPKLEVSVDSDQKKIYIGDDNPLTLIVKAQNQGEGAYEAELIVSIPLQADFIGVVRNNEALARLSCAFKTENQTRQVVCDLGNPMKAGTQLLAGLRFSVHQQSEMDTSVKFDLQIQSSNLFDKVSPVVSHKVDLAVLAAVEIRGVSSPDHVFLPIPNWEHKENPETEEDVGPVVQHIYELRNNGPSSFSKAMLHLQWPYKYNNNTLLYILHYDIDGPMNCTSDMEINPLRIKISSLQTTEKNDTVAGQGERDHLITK
T1 sequence (P06756 891-1048 partner limits assumed): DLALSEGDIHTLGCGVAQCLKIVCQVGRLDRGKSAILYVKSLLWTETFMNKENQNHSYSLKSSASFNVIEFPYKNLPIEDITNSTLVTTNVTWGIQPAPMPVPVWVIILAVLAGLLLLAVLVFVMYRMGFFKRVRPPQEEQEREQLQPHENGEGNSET
T1 sequence (P18564 22-788): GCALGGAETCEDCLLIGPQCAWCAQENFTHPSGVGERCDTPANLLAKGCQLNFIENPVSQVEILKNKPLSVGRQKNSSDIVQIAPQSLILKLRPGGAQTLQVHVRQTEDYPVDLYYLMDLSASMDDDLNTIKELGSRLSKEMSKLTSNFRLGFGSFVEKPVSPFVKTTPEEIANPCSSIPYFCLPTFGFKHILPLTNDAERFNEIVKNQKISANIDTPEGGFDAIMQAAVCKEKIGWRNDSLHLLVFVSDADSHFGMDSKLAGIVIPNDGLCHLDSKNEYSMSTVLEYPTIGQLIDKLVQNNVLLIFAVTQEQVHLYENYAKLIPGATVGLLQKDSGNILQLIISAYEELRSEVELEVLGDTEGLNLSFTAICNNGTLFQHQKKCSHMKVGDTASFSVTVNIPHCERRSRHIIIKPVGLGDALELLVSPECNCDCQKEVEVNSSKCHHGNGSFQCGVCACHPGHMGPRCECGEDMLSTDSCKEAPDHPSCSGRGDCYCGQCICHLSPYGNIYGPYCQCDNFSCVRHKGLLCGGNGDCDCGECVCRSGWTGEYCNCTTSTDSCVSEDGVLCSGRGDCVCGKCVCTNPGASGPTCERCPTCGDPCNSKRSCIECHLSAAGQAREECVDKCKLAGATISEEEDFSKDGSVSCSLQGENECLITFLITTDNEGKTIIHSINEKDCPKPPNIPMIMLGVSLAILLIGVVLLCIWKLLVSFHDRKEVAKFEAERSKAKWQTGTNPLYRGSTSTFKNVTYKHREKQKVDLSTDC
Protocol: The aim of this Example is to assess target engagement of the disclosed compounds to αVβ6 in participants with IPF using [^18F]FP-R01-MG-F2 PET/computerized tomography (CT) imaging.
(§1) This Example was conducted as an open-label, single-dose (60 mg, 120 mg, 240 mg or 320 mg) clinical trial evaluating αVβ6 receptor occupancy in the lungs, safety, and pharmacokinetics of Compound 5 in subjects with IPF. Knottin tracer uptake kinetics were compared pre- and post-dose of the disclosed compound, as measured by standardized uptake values (SUVs) and parameters estimated from kinetic modeling in regions-of-interest on dynamic [^18F]FP-R01-MG-F2 PET/CT scans. […] Receptor occupancy was estimated from the output of the two-compartment model (VT, the volume of labeled tissue) using standard equations and fitting algorithms, and corrections for VND (non-displaceable tracer binding). For example, in FIG. 8, the data points, shown as circles, are modeled by the following formula: […]
(§2) Five subjects with IPF were enrolled: Subject A received a single dose of 60 mg of the disclosed compound followed by a post-dose scan. Subject B received two doses of the disclosed compound separated by two weeks, 120 mg and 240 mg, each followed by a post-dose scan. Subject C received two doses of the disclosed compound separated by two weeks, 240 mg and 320 mg, each followed by a post-dose scan. Subject D received a single dose of 320 mg of the disclosed compound followed by a post-dose scan.

[5] = Unbound plasma concentration in the PET study; type: in vivo, human; details: IPF
Protocol: as §1, §2

SMILES: COCCN(CCCCc1ccc2c(n1)NCCC2)CC[C@H](Nc1ncnc2ccccc12)C(=O)O [Compound 5, (S)-4-((2-methoxyethyl)(4-(5,6,7,8-tetrahydro-1,8-naphthyridin-2-yl)butyl)amino)-2-(quinazolin-4-ylamino)butanoic acid]
- inhibition of cell adhesion in the IPF-derived lung fibroblasts [1]: substantially inhibited
- SMAD3 phosphorylation (PSMAD3/SMAD3) in lung tissue ([2]; FIG. 2A): approximately 50 % of the untreated levels
- SMAD3 phosphorylation (PSMAD3/SMAD3) in cells isolated from BALF ([2]; FIG. 2B): approximately 50 % of the untreated levels
- accumulated new collagen (percentage of lung collagen containing 2H-labeled hydroxyproline) ([3]; 1× and 5× BID, FIG. 2D): dose-dependent reduction
- total pulmonary collagen (μg of hydroxyproline) ([3]; 1×, […], 5× BID, FIG. 2E): reduction in total pulmonary collagen
- total collagen area in second harmonic generation images ([3]; 1×, […], 5× BID, FIG. 2I): substantial, statistically significant dose-dependent reduction
- decrease of the volume of distribution of the knottin radiotracer in the lungs ([4]; 60 mg dose): approximately 50%
- decrease of the volume of distribution of the knottin radiotracer in the lungs ([4]; 240 and 320 mg doses): greater than 95%
- Receptor occupancy ([4]; IPF lungs, at pharmacologically relevant plasma concentrations): > 95%
- Vs (corrected for non-displaceable binding, VND = 0.66) ([4]; Subject A, 60 mg, post-dose scan (baseline Vs 2.47)): 1.18
- Vt ([4]; Subject A, 60 mg, post-dose scan (baseline Vt 3.13)): 1.84
- % DeltaVt ([4]; Subject B, 120 mg): 59.76%
- Vs (corrected for non-displaceable binding, VND = 0.66) ([4]; Subject B, 120 mg, post-dose scan (baseline Vs 2.48)): 0.99
- Vt ([4]; Subject B, 120 mg, post-dose scan (baseline Vt 3.12)): 1.65
- Vs (corrected for non-displaceable binding, VND = 0.66) ([4]; Subject B, 240 mg, post-dose scan (baseline Vs 2.46)): 0.06
- Vt ([4]; Subject B, 240 mg, post-dose scan (baseline Vt 3.12)): 0.72
- Vs (corrected for non-displaceable binding, VND = 0.66) ([4]; Subject C, 240 mg, post-dose scan (baseline Vs 1.1)): 0,32
- Vt ([4]; Subject C, 240 mg, post-dose scan (baseline Vt 1.76)): 0.98
- Vs (corrected for non-displaceable binding, VND = 0.66) ([4]; Subject C, 320 mg, post-dose scan (baseline Vs 1.1)): 0.19
- Vt ([4]; Subject C, 320 mg, post-dose scan (baseline Vt 1.76)): 0.85
- Vs (corrected for non-displaceable binding, VND = 0.66) ([4]; Subject D, 320 mg, post-dose scan (baseline Vs 1.4)): 0.09
- Vt ([4]; Subject D, 320 mg, post-dose scan (baseline Vt 2.06)): 0.75
- concentration at which the exposure response saturates ([4]; measured drug exposure at 4 hours, approaching 100% receptor occupancy): about 100 nM
- Conc (Unbound Plasma Concentration) ([5]; Subject A, single 60 mg dose): 3.66 nM
- Conc (Unbound Plasma Concentration) ([5]; Subject B, 120 mg dose): 10 nM
- Conc (Unbound Plasma Concentration) ([5]; Subject B, 240 mg dose two weeks after 120 mg): 58.3 nM
- Conc (Unbound Plasma Concentration) ([5]; Subject C, 240 mg dose): 103 nM
- Conc (Unbound Plasma Concentration) ([5]; Subject D, single 320 mg dose): 33.6 nM
